{
  "source": "patent US20250152537A1",
  "about": "“COMPOSITIONS AND METHODS FOR THE TREATMENT OF HUMAN IMMUNODEFICIENCY VIRUS” (PROTHIONE LLC, priority 2022, published 2025)",
  "origin": "cited, not measured here",
  "settings": "not told",
  "data": [
    {"smiles": "N[C@@H](CCC(=O)N[C@@H](CS)C(=O)NCC(=O)O)C(=O)O", "note": "[GSH, glutathione]", "values": [
      {"measurement": "membrane permeability", "result": "membrane-impermeable"}
    ]}
  ]
}
